According to patent US7790896B2, “RNA-selective probes for live cell imaging of nuclear structure and function” (New York University, priority 2006, dated 2010):

Tests used:
[1] = tested on: Fixed-permeabilized Hela cells; assay: DNase and RNase digest test; format: cell-based, human; conditions: dye 50 μM, 2 hours
Description: Cells were first fixed using cold (−4° C.) pure methanol for 1 minute at ambient temperature. The cell membrane was then permeabilized by immersion in 1% Triton X-100 for 2 minutes. After rinsing with PBS twice, 100 μL of 50 μM dye PBS solution was added to three adjacent wells. Cells were then incubated in this dye PBS solution for 15 minutes in ambient temperature before being rinsed with clean PBS twice. 100 μL clean PBS (as control experiment), 30 μg/mL DNase (Sigma), or 25 μg/mL DNase-Free RNase (GE) was added to the three adjacent wells and incubated at 37° C. in 5% CO2 for 2 hours. Cells were rinsed with clean PBS twice before imaging. For each dye test, the fluorescent images were obtained using equal exposure time for control, DNase and RNase experiments. DAPI (10 μM) in PBS and SYTO®RNASelect (5 μM) in PBS solution were used for dual staining experiments. Duplicate experiments have been tested.
To further confirm that the compounds selectively bind RNA, a deoxyribonuclease (DNase) and ribonuclease (RNase) digest test was performed. In DNase digest, only the DNAs in the cell would be hydrolyzed. By contrast, in RNase digest, only RNAs would be hydrolyzed. Fixed-permeabilized Hela cells were used in this experiment and DAPI and SYTO®RNASelect were used as control dyes (FIG. 6). […] Still, its higher RNA-selective binding in live cell might be due to the complicated in vivo live cell environment, which may preferably direct this dye to nucleoli.

[2] = tested on: 3T3 fibroblast cells, 3T3-L1 adipocyte cells, Hela cells and A549 human lung carcinoma cells; assay: Secondary screening: live cell nuclear imaging properties in four cell lines; format: cell-based, mouse; conditions: dye 25 μM
Description: (§1) All cell staining imaging followed the same procedure. Generally, dyes in dry state were first dissolved in DMSO to obtain the stock solution. The stock solutions were then added directly to the cell culture wells to reach the desired concentration. Total DMSO was lower than 0.1%. After adding dyes, cells were incubated at 37° C. in 5% CO2 for 25 minutes. The medium was then removed and cells were rinsed with fresh medium twice. The cells were then imaged at ambient temperature in the medium. Exposure time was kept less than 5 seconds and adjusted to each dye.
The selected compounds from both primary screens (total 88) were resynthesized in large scale and purified. The compounds' live cell nuclear imaging properties were then tested by four cell lines, including two mouse cell lines: 3T3 fibroblast cells and 3T3-L1 adipocyte cells; and two human cancer cell lines: Hela cells and A549 human lung carcinoma cells. Herein, the final dye concentration in each test was decreased to 25 μM and all the experiments were repeated to establish reproducibility. […] Each of the three dyes contained at least one high affinity nucleic acid functional group (Trotta et al., “Solution Structure of DAPI Selectively Bound in the Minor Groove of a DNA T-T Mismatch-Containing Site: NMR and Molecular Dynamics Studies,” Nucleic Acids Res. 26:4706-4713 (1998); Loontiens et al., “Binding Characteristics of Hoechst 33258 with Calf Thymus DNA, Poly[d(A-T)], and d(CCGGAATTCCGG): Multiple Stoichiometries and Determination of Tight Binding with a Wide Spectrum of Site Affinities,” Biochem. 29:9029-9039 (1990); Zipper et al., “Investigations on DNA Intercalation and Surface Binding by SYBR Green I, Its Structure Determination and Methodological Implications,” Nucleic Acid Res. 32:E103 (2004); Glazer et al., “Stable Dye-DNA Intercalation Complexes as Reagents for High-Sensitivity Fluorescence Detection,” Nature 359:859-861 (1992), which are hereby incorporated by reference in their entirety) in building block II such as the terminal secondary amine for F22 and F112, the trimethoxy for E 144, and the indole for E36.

[3] = tested on: Hela, A549, 3T3, and 3T3-L1; assay: Optimization of working concentration and imaging properties, live cell staining; format: cell-based, human, mouse; conditions: 20, 10, 5 and 1 μM tested in four cell lines
Description: as §1
In fluorescence microscopic imaging studies, it is always desirable to use as little dye as possible to stain organelles in order to maximize specificity and minimize dye toxicity and cell death. To determine the lowest working concentration of each dye, four different concentrations (20 μM, 10 μM, 5 μM, and 1 μM) were tested in four cell lines (Hela, A549, 3T3, and 3T3-L1). Dyes E36, E144, and F112 were imaged using FITC channel, and F22 was imaged using Cy3 channel. Generally, a quality fluorescence signal for each dye was produced using a concentration of 5 μM for E36, E144, and F22 and 10 μM for F112 (Table 5). It was interesting to observe that compound F22 was brighter in 3T3 cells, and a concentration of 1 μM was sufficient for a clear image (FIG. 4). […] Little photobleaching and no obvious cell morphology or viability changes were observed during the tests.

[4] = Fluorescence spectrum in TE buffer of dyes selected from live cell imaging; format: physicochemical; conditions: dye 10 μM in TE buffer
Description: (§2) The fluorescence spectra data in the primary screening and selected dyes titration assay study was obtained by Gemini XS plate reader. RNA solution was prepared right before the assay experiments to avoid possible degradation and contamination. In the primary screening, 1 mg/mL RNA (type VI from torula yeast) buffer solution was used. Point scans were carried out first using five Ex/Em point sets ([…], 400/500, 450/550, 500/600, 550/650 nm). Spectra scans were then carried out for the selected dyes. Excitation wavelengths were set at 350 nm, 400 nm, 450 nm, 500 nm, and 550 nm and the emission wavelengths were scanned. RNA (16S- and 23S-ribosomal from E. coli) and DNA (salmon testes) titration experiments and quantum yield/extinction coefficient determination for the three best dyes were carried out by the plate reader as well. Excitation λmax obtained from F-2500 Hitachi Fluorophotometer was used. Absorbance wavelength was determined by SpectraMax Plus^384 absorbance plate reader. […] was chosen as standard and 480 nm was used as excitation wavelength in the scanning for quantum yield determination.

[5] = Fluorescent properties of free dye solution; format: physicochemical; conditions: TE buffer pH 7.5, dye 5 μM
Description: as §2, with “determination. […] Generally, the λmax (nm) of emission was determined by scanning a fixed excitation first, and the μmax (nm) of excitation was determined by scanning emission spectrum with a fixed μem (nm). The detailed fluorescent properties of three selected dyes including; excitation/emission μmax, the quantum yield and extinction coefficient of both free dye solution and dye-RNA solution were assessed (Table 5).” for “determination.”

[6] = tested on: RNA (16S- and 23S-ribosomal from E. coli); assay: Fluorescent properties of dye-RNA solution; format: binding; conditions: TE buffer pH 7.5, dye 5 μM, RNA 200 μg/mL
Description: as §2, with “determination. […] Generally, the λmax (nm) of emission was determined by scanning a fixed excitation first, and the μmax (nm) of excitation was determined by scanning emission spectrum with a fixed μem (nm). The detailed fluorescent properties of three selected dyes including; excitation/emission μmax, the quantum yield and extinction coefficient of both free dye solution and dye-RNA solution were assessed (Table 5).” for “determination.”

[7] = tested on: RNA (Type VI from torula yeast); assay: In vitro solution assay (primary screening): fluorescent emission fold change upon binding to RNA; conditions: dye 10 μM, RNA 500 μg/mL in TE buffer
Description: as §2
The screening strategy used in this study is illustrated in FIG. 2. Both in vitro RNA assays and live cell imaging methods were utilized in the primary screening of the dye library. Selective binding of the dye to RNA in solution was the primary criterion for selecting lead compounds for subsequent bioimaging studies, Herein, the library dyes' fluorescent emission intensity fold change upon binding to RNA was measured in solution. Dyes showing five-fold or higher emission changes in the presence of RNA were selected (Table 3). Note the dyes listed are identified by the building blocks I and II from Table 2. For example, A4 is the product made by reacting compound A from the list of Building block I and compound 4 from the list of Building block II.

3T3 cells = assay: Phototoxicity test, MTS assay of irradiated cells; format: cell-based, mouse; conditions: dye 5 μM (Hoechst 1 μM), irradiated 5 minutes, 24 hours incubation
Description: Dye DMSO stock solutions were diluted by fresh medium into working concentration (5 μM). Cells were cultured in 96-well plate for 12 hours before experiments. The cell medium was exchanged with dye medium solutions. Cells were then incubated in at 37° C., in 5% CO2 for 25 minutes before being irradiated by fluorescent light using the appropriate working filter (FITC for E36 and E144; Cy3 for F22) for 5 minutes. The plates were then incubated at 37° C. in 5% CO2 The cell viability was measured by MTS assay after 5 and 24 hours following the cytotoxicity measurement procedure. Duplicated experiments have been tested.
Phototoxicity is also an important factor in evaluating applicability of new fluorescent probes for live cell imaging. […] Nevertheless, it is desirable for the new imaging probes to be as non-phototoxic as possible. To investigate the phototoxicity of the present RNA-selective compounds, cellular viability of irradiated cells using MTS assay was assessed. Cells were incubated with dyes (E36, E144, and F22) in their working concentration (5 μM), and then irradiated with the appropriate filters using the fluorescent microscope (FITC for E36 and E144; Cy3 for F22). While light exposures used for imaging experiments are generally a few seconds long at most, cells were irradiated for 5 minutes for prolonged toxicity measurement. […]

SMILES	SPECTRUM EM [4] [nm]	SPECTRUM EX [4] [nm]	also measured
COc1ccc2c(ccc(/C=C/c3ccc(N(C)C)cc3[N+](=O)[O-])[n+]2C)c1 [Dye F112]	620	500	Fluorescence after RNase digest ([1]; 25 μg/mL DNase-Free RNase): slight stain of the nucleus; Fluorescence after DNase digest ([1]; 30 μg/mL DNase): bright nucleolar staining remained; Live cell nuclear imaging properties (basis of selection) [2]: selective nucleolar targeting, high fluorescence intensity, low photobleaching, and low cellular toxicity; Optimum Concentration for live cell imaging [3]: 10 µM; EM (emission λmax), Buffer [5]: 516 nm; EX (excitation λmax), Buffer [5]: 462 nm; EM (emission λmax), RNA [6]: 514 nm; EX (excitation λmax), RNA [6]: 465 nm
COc1ccc2c(ccc(C=Cc3ccc4c5c(cccc35)CC4)[n+]2C)c1 [Dye F118]	590	450	
COc1ccc2c(ccc(C=Cc3ccc(-c4cccs4)s3)[n+]2C)c1 [Dye F119]	610	500	
COc1ccc2c(ccc(/C=C/c3cc(I)ccc3O)[n+]2C)c1 [Dye F120]	550	450	
COc1ccc2c(ccc(/C=C/c3cccc(Br)n3)[n+]2C)c1 [Dye F128]	510	400	
COc1ccc2c(ccc(/C=C/c3cc(Br)ccc3OC)[n+]2C)c1 [Dye F137]	540	400	
COc1ccc2c(ccc(C=Cc3ccccc3N(c3ccccc3)c3ccccc3)[n+]2C)c1 [Dye F138]	460	350	
COc1ccc2c(ccc(C=Cc3ccc(C)c4ccccc34)[n+]2C)c1 [Dye F141]	560	450	
COc1ccc2c(ccc(C=Cc3c(C)ccc4ccccc34)[n+]2C)c1 [Dye F143]	550	450	
COC(=O)c1cc(OC)cc(OC)c1C=Cc1ccc2cc(OC)ccc2[n+]1C [Dye F145]	540	400	
COc1ccc2c(ccc(/C=C/c3cccc(OC)c3OC(C)=O)[n+]2C)c1 [Dye F153]	470	350	
COc1ccc2c(ccc(/C=C/c3ccc(OC)c(O)c3Cl)[n+]2C)c1 [Dye F155]	540	450	
COc1ccc2c(ccc(C=Cc3ccc(O)c(Br)c3)[n+]2C)c1 [Dye F158]	620	500	Em(nm) [7]: 620 nm; Ex(nm) [7]: 500 nm; Fold (fluorescent emission fold changes to RNA) [7]: 7
CN1CCN(c2ccc3[nH]c(-c4ccc5[nH]c(-c6ccc(O)cc6)nc5c4)nc3c2)CC1 [Hoechst 33258]			Phototoxicity (3T3 cells): as toxic in 3T3 cells as F22
